One may read the DC50 as the concentration giving 50% degradation. Low readings indicate a more potent degrader, high ones a less potent degrader. In general, Dmax refers to the largest share of the target that was removed. A lower Dmax goes with a partial loss of target.

Molecules are shown by their SMILES.

Common to all, as to format: cell-based
The target of assay [1] is T1, BRD9 (Homo sapiens, UniProt Q9H8M2).
T1 sequence (Q9H8M2 1-597): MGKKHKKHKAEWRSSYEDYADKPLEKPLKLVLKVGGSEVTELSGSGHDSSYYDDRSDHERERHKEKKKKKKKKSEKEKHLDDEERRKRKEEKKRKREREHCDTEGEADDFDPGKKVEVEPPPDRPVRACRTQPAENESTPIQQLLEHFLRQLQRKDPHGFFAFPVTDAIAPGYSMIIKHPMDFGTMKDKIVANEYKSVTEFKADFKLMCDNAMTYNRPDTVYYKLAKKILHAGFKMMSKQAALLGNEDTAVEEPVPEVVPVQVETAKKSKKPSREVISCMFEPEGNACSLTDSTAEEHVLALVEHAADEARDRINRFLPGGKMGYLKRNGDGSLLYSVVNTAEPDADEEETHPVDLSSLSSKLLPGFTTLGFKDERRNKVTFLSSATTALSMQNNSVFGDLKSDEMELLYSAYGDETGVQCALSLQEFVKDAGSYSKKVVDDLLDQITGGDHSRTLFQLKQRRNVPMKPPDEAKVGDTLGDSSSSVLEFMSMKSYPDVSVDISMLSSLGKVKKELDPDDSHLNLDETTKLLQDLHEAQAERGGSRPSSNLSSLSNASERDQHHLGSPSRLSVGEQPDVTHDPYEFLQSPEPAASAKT
Description: Assay Protocol 1 - Degradation of HiBit-BRD9 in HEK293. Particulars: titration up to 10 μM; for DC50: Assay Protocol 1: HiBit-BRD9 in HEK293, 6 h; for Dmax: HEK293, Assay Protocol 1: HiBit-BRD9 in HEK293, 6 h. The protocol:
Assay Protocol 1—Degradation of HiBit-BRD9 in HEK293
HEK293 stably expressing LgBit and containing a HiBit insertion for BRD9 were plated in 384-well tissue culture plates at a density of 8×10^3 per well in a volume of 36 μL and incubated overnight at 37° C. and 5% CO2. Wells were treated with test compounds (11 pt titration up to 10 μM) for 6 h prior to addition of Nano-Glo® Hibit Lytic buffer (1:50 substrate and 1:100 LgBit protein) and reading on a PheraSTAR. Degradation data was plotted and analysed using Prism 8 (Graphpad).
On the technique in general: With HiBiT, luminescence reflects the tagged protein that the partner subunit can reach.

For assay [2], the target named is T1, BRD9. Description: Assay Protocol 2 - Degradation of BRD9 (IF) in MV4-11 cells. Also noted: host or cells: MV4-11. Particulars: Assay Protocol 2: BRD9 immunofluorescence, 24 hours. On the procedure: Assay Protocol 2—Degradation of BRD9 (IF)
A suspension of MV4-11 cells (ATCC CRL-9591) was prepared in phenol red-free assay media (IMDM Thermo Scientific 21056023+10% FBS ATCC 302025) and cells were seeded at 20,000 cells per well (45 μL) in sterile black poly-d-lysine coated 384 well plates (Greiner 781948). Compounds were prepared at 1000× final concentration in DMSO, diluted 1:100 in assay media, and 5 μL compound was added to each well of the cell plate. Cells were incubated for 24 hours at 37° C. with 5% CO2. All the following incubations for immunofluorescence staining were at room temperature. 15 μL of 16% PFA was added to each well (3.7% final concentration) and the cells were fixed for 15 min then washed twice with DPBS. Cells were permeabilised with 0.1% Triton X-100 for 10 min, Triton X-100 was removed, then blocked with 1% BSA in DPBS for 1 hour. Cells were stained with 25 μL anti-BRD9 E4Q3F antibody (CST 48306) diluted 1:25600 in 1% BSA in DPBS for 2-3 hours. Wells were washed twice with DPBS then incubated with 25 μL of 1% BSA containing a 1:1000 dilution of Anti-rabbit Alexa Fluor™ 647 secondary antibody (Thermo Scientific A^21244) and 1 μg/mL Hoechst nuclear counter stain (Abcam ab228551) for 1 hour. Wells were washed twice with DPBS prior to imaging on a Perkin Elmer Operetta CLS with 10× air lens. Images were processed using Harmony High-Content Imaging and Analysis Software (Perkin Elmer) and the mean contrast ratio of Alexa Fluor™ 647 in central nuclei was used to quantify BRD9 protein levels. Data was further analysed using Dotmatics software and % BRD9 remaining was calculated by normalisation to average data from high and low control wells (cells treated with DMSO or 100 nM CFT-8634 respectively).

The next assay concerns the target T2, BRD4 (Homo sapiens, UniProt O60885).
T2 construct: HEK293 containing a HiBit insertion for BRD4; endogenous in cells; host or cells: HEK293 with a HiBiT insertion for BRD4
Description: Assay 1 - Degradation of HiBit-BRD4 in HEK293. Particulars: HiBit-BRD4 in HEK293, 6 h treatment. On the procedure: 1.1 Assay 1-Degradation of HiBit-BRD4 in HEK293
HEK293 containing a HiBit insertion for BRD4 were plated in 384-well tissue culture plates at a density of 8×10^4 per well in a volume of 36 μL and incubated overnight at 37° C. and 5% CO2. Wells were treated with test compounds for 6 h prior to addition of the NanoLuc substrate and reading on a […]. Degradation data was plotted and analysed using […] (Graphpad).

`COc1cc(-c2cn(C)c(=O)c(C)c2C)cc(OC)c1CN(C)C1CCN(C(=O)/C(C#N)=C/C23CC(C2)C3)CC1` (mixture of isomers) [BRD9ae, (E/Z)-3-(bicyclo[1.1.1]pentan-1-yl)-2-(4-((2,6-dimethoxy-4-(1,4,5-trimethyl-6-oxo-1,6-dihydropyridin-3-yl)benzyl)(methyl)amino)piperidine-1-carbonyl)acrylonitrile]: the DC50 at BRD9 [1] and at BRD9 [2] was less than 25 nM in each case. In addition, the Dmax at BRD9 [1] and at BRD9 [2] was not below 70% in each case.

The compound `COc1cc(-c2cn(C)c(=O)c(C)c2C)cc(OC)c1CN1CC2CC1CN2C(=O)/C(C#N)=C/C(C)(C)C` (mixture of isomers) [BRD9b, (E/Z)-2-(5-(2,6-dimethoxy-4-(1,4,5-trimethyl-6-oxo-1,6-dihydropyridin-3-yl)benzyl)-2,5-diazabicyclo[2.2.1]heptane-2-carbonyl)-4,4-dimethylpent-2-enenitrile] showed a DC50 on BRD9 [2] of more than 200 nM. On to `COc1cc(-c2cn(C)c(=O)c(C)c2C)cc(OC)c1CN1CC2CC1CN2C(=O)/C(C#N)=C/c1nccs1` (mixture of isomers) [BRD9i, (E/Z)-2-(5-(2,6-dimethoxy-4-(1,4,5-trimethyl-6-oxo-1,6-dihydropyridin-3-yl)benzyl)-2,5-diazabicyclo[2.2.1]heptane-2-carbonyl)-3-(thiazol-2-yl)acrylonitrile], for which, on BRD9 [2], the DC50 was more than 200 nM and the maximal degradation (Dmax) was 30 to 50%. At BRD9 [2], `COc1cc(-c2cn(C)c(=O)c(C)c2C)cc(OC)c1CN1CC2CC(C1)N2C(=O)/C(C#N)=C/c1cccc(Br)n1` (mixture of isomers) [BRD9m, (E/Z)-3-(6-bromopyridin-2-yl)-2-(3-(2,6-dimethoxy-4-(1,4,5-trimethyl-6-oxo-1,6-dihydropyridin-3-yl)benzyl)-3,6-diazabicyclo[3.1.1]heptane-6-carbonyl)acrylonitrile] yielded a Dmax not below 70%. At BRD9 [2], `COc1cc(-c2cn(C)c(=O)c(C)c2C)cc(OC)c1CN1C2CC1CN(C(=O)/C(C#N)=C/C1(C(F)(F)F)CCC1)C2` (mixture of isomers) [BRD9p, (E/Z)-2-(6-(2,6-dimethoxy-4-(1,4,5-trimethyl-6-oxo-1,6-dihydropyridin-3-yl)benzyl)-3,6-diazabicyclo[3.1.1]heptane-3-carbonyl)-3-(1-(trifluoromethyl)cyclobutyl)acrylonitrile] gave a DC50 of 25 to 200 nM and a Dmax of 50 to 70%. Consider `COc1cc(-c2cn(C)c(=O)c(C)c2C)cc(OC)c1C(=O)N1CC2CC1CN2C(=O)/C(C#N)=C/C(C)(C)C` (mixture of isomers) [BRD9t, (E/Z)-2-(5-(2,6-dimethoxy-4-(1,4,5-trimethyl-6-oxo-1,6-dihydropyridin-3-yl)benzoyl)-2,5-diazabicyclo[2.2.1]heptane-2-carbonyl)-4,4-dimethylpent-2-enenitrile], for which the DC50 at BRD9 [2] fell in the range of 25 to 200 nM. On to `COc1cc(-c2cn(C)c(=O)c(C)c2C)cc(OC)c1CN1C[C@@H](C)N(C(=O)/C(C#N)=C/C(C)(C)C)C[C@@H]1C` [BRD9ad, (E)-2-((2R,5S)-4-(2,6-dimethoxy-4-(1,4,5-trimethyl-6-oxo-1,6-dihydropyridin-3-yl)benzyl)-2,5-dimethylpiperazine-1-carbonyl)-4,4-dimethylpent-2-enenitrile], for which, at BRD9 [2], the DC50 fell in the range of 25 to 200 nM and the Dmax lay in the range of 50 to 70%.

Turning to `COc1cc(-c2cn(C)c(=O)c(C)c2C)cc(OC)c1CN1C2CC1CN(C(=O)/C(C#N)=C/c1cccc(C(F)(F)F)n1)C2` [BRD9af, (E)-2-(6-(2,6-dimethoxy-4-(1,4,5-trimethyl-6-oxo-1,6-dihydropyridin-3-yl)benzyl)-3,6-diazabicyclo[3.1.1]heptane-3-carbonyl)-3-(6-(trifluoromethyl)pyridin-2-yl)acrylonitrile], at BRD9 [2], the DC50 was less than 25 nM and the maximal degradation (Dmax) is not below 70%. Taken in the same sequence, the figures for `COc1cc(-c2cn(C)c(=O)c(C)c2C)cc(OC)c1CN1C2CC1CN(C(=O)/C(C#N)=C/C1(F)CC1)C2` [BRD9ag, (E)-2-(6-(2,6-dimethoxy-4-(1,4,5-trimethyl-6-oxo-1,6-dihydropyridin-3-yl)benzyl)-3,6-diazabicyclo[3.1.1]heptane-3-carbonyl)-3-(1-fluorocyclopropyl)acrylonitrile] were less than 25 nM and not below 70%. On BRD9 [2], `COc1cc(-c2cn(C)c(=O)c(C)c2C)cc(OC)c1CN1CCN(C(=O)C2CC(C)CN(C(=O)/C(C#N)=C/C(C)(C)C)C2)CC1` (centres unmarked) [BRD9ba, (E)-2-(3-(4-(2,6-dimethoxy-4-(1,4,5-trimethyl-6-oxo-1,6-dihydropyridin-3-yl)benzyl)piperazine-1-carbonyl)-5-methylpiperidine-1-carbonyl)-4,4-dimethylpent-2-enenitrile] came in with a DC50 of less than 25 nM and a Dmax not below 70%. Consider `COc1cc(-c2cn(C)c(=O)c(C)c2C)cc(OC)c1CN1CCN(C(=O)/C(C#N)=C/c2nccs2)CC1` [BRD9g, (E/Z)-2-(4-(2,6-dimethoxy-4-(1,4,5-trimethyl-6-oxo-1,6-dihydropyridin-3-yl)benzyl)piperazine-1-carbonyl)-3-(thiazol-2-yl)acrylonitrile], for which, at BRD9 [1], the DC50 was more than 200 nM and the Dmax was 30 to 50%. On BRD9 [2], `COc1cc(-c2cn(C)c(=O)c(C)c2C)cc(OC)c1C(=O)N1CCN(C(=O)/C(C#N)=C/C(C)(C)C)CC1` [BRD9s, (E/Z)-2-(4-(2,6-dimethoxy-4-(1,4,5-trimethyl-6-oxo-1,6-dihydropyridin-3-yl)benzoyl)piperazine-1-carbonyl)-4,4-dimethylpent-2-enenitrile] returned a DC50 of 25 to 200 nM. Still for that read-out and setting: as for `COc1cc(-c2cn(C)c(=O)c(C)c2C)cc(OC)c1C(=O)N1CCCN(C(=O)/C(C#N)=C/C(C)(C)C)CC1` [BRD9v, (E/Z)-2-(4-(2,6-dimethoxy-4-(1,4,5-trimethyl-6-oxo-1,6-dihydropyridin-3-yl)benzoyl)-1,4-diazepane-1-carbonyl)-4,4-dimethylpent-2-enenitrile], the figure is 25 to 200 nM.

On to `COc1cc(-c2cn(C)c(=O)c3ccsc23)cc(OC)c1CN1CCN(C(=O)/C(C#N)=C/C(C)(C)C)CC1` [BRD9w, (E/Z)-2-(4-(2,6-dimethoxy-4-(5-methyl-4-oxo-4,5-dihydrothieno[3,2-c]pyridin-7-yl)benzyl)piperazine-1-carbonyl)-4,4-dimethylpent-2-enenitrile], for which the DC50 at BRD9 [1] lay in the range of 25 to 200 nM. Take `COc1ccc([C@@H]2CN(C(=O)/C(C#N)=C/c3nccs3)C[C@H]2C(=O)NCCOCCOCCOCCOCCOCCNC(=O)c2ccc(-c3ccc4c(c3)[C@H](Nc3ccc(Cl)cc3)C[C@H](C)N4C(C)=O)cc2)cc1` [Example 15z]: on BRD4, the DC50 was 25 to 200 nM and the Dmax lay in the range of 30 to 50%.
